Experimental data published in US20240025906A1 (NEURON23, INC., priority 2022, published 2024).
Like-named read-outs stand apart in the source and are kept apart here.

Columns and labels:
[1] = tested on: JAK1/TYK2 pSTAT5 (Tyr694/699) in THP-1 cell line; test: IFNa-stimulated JAK1/TYK2 pSTAT5 (Tyr694/699) inhibition cellular assay, AlphaLISA; type: cell-based; details: Homo sapiens, THP-1 cells, AlphaLISA (Assay B)
In short: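 THP-1 cells (2e4/well) in HBSS preincubated 1 h at 37° C. with compound (final 10000–0.04 nM, 8 points, 6-fold), then stimulated with IFNa (100 ng/mL stock) for 30 min before lysis. pSTAT5 (Tyr694/699) read by AlphaLISA at 615 nm; IC50 from four-parameter logistic fit with bottom fixed at 0 and Hill slope at −1.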

TYK2 JH2 = target: T1, TYK2 JH2 (Homo sapiens, UniProt P29597); test: TYK2 JH2 binding assay (KINOMEscan KdELECT competitive binding); details: TYK2 JH2 domain
T1 construct: purchased DiscoverX (KINOMEscan KdELECT service); host or cells: E. coli BL21-derived (T7 phage display) or HEK-293
T1 sequence (P29597 589-875 limits assumed): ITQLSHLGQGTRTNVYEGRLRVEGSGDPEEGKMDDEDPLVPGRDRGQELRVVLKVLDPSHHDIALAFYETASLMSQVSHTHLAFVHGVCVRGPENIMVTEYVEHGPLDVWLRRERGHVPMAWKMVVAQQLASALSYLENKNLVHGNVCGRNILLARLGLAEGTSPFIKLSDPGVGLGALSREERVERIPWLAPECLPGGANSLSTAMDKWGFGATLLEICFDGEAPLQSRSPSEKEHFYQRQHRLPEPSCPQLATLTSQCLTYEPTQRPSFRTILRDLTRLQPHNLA
In short: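 Kd values come from qPCR measurement of kinase retained on an immobilized-ligand resin after 1 h room-temperature competition with compound in an 11-point, 3-fold series.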

[2] = IFNa-stimulated, read-out: Cellular_THP1_IFNa-pSTATS_TYK2
[3] = KINOMEscan KdELECT (Assay A), read-out: Biochemical TYK2_DiscoverX_JH2_BND_Kd
[4] = DiscoverX KINOMEscan KdELECT (Assay A), read-out: Biochemical TYK2_DiscoverX_JH2_BND_Kd
[5] = IFNa-stimulated, read-out: Cellular THP1_IFNa-pSTATS_IC50
[6] = KINOMEscan KdELECT (Assay A), read-out: Biochemical TYK2_JH2_Kd

Compound	IC50 [1, 2] [nM]	Kd (TYK2 JH2; [3]) [nM]	Kd (TYK2 JH2; [4]) [nM]	further results
CNc1ncc(C#Cc2ccc3nnn(CCCOC)c3c2)c2cc(NC(=O)C3CC3)ncc12 [Example 688, N-(5-((1-(3-methoxypropyl)-1H-benzo[d][1,2,3]triazol-6-yl)ethynyl)-8-(methylamino)-2,7-naphthyridin-3-yl)cyclopropanecarboxamide]	≤ 500	≤ 100		
CNc1ncc(-c2nc3cc(OC)ccc3o2)c2cc(NC(=O)[C@H]3C[C@H]3C)ncc12 [Example 384, (1S,2R)-N-(5-(5-methoxybenzo[d]oxazol-2-yl)-8-(methylamino)-2,7-naphthyridin-3-y1)-2-methylcyclopropane-1-carboxamide]	≤ 500		≤ 100	
CNc1ncc(-c2ccccc2F)c2cc(NC(=O)C3CC3)ncc12 [Example 17, N-(5-(2-fluorophenyl)-8-(methylamino)-2,7-naphthyridin-3-yl)cyclopropanecarboxamide]				IC50 [1, 5]: > 500 nM; Kd (TYK2 JH2; [6]): ≤ 100 nM
CNc1ncc(-c2nc3cc(N4C[C@H]5COC[C@H]5C4)ccc3o2)c2cc(NC(=O)C3CC3)ncc12 [Example 306, N-(8-(methylamino)-5-(5-((3aR,6a.S)-tetrahydro-1H-furo[3,4-c]pyrrol-5(3H)-yl)benzo[d]oxazol-2-y1)-2,7-naphthyridin-3-yl)cyclopropanecarboxamide]	≤ 500		≤ 100	
CNc1ncc(C#Cc2ccc(-n3nccn3)cn2)c2cc(NC(=O)C3CC3)ncc12 [Example 953, N-(5-((5-(2H-1,2,3-triazol-2-yl)pyridin-2-yl)ethynyl)-8-(methylamino)-2,7-naphthyridin-3-yl)cyclopropanecarboxamide]	≤ 500	≤ 100		
CNc1ncc(CC2CCOC2)c2cc(NC(=O)C3CC3)ncc12 (stereo not shown) [Example 80, N-(8-(methylamino)-5-((tetrahydrofuran-3-yl)methyl)-2,7-naphthyridin-3-yl)cyclopropanecarboxamide]				IC50 [1, 5]: > 500 nM; Kd (TYK2 JH2; [6]): ≤ 100 nM
CNc1ncc(Cc2ccc(OC)cc2)c2cc(NC(=O)C3CC3)ncc12 [Example 34, N-(5-(4-methoxybenzyl)-8-(methylamino)-2,7-naphthyridin-3-yl)cyclopropanecarboxamide]				IC50 [1, 5]: > 500 nM; Kd (TYK2 JH2; [6]): 100 to 1000 nM
CCc1nc(NC)c2cnc(NC(=O)C3CC3)cc2c1C#Cc1ccc(OC)cc1 [Example 780, N-(6-ethyl-5-((4-methoxyphenyl)ethynyl)-8-(methylamino)-2,7-naphthyridin-3-yl)cyclopropanecarboxamide]	> 500	≤ 100		
CNc1ncc(-c2ccccc2C)c2cc(NC(=O)C3CC3)ncc12 [Example 35, N-(8-(methylamino)-5-(o-tolyl)-2,7-naphthyridin-3-yl)cyclopropanecarboxamide]				IC50 [1, 5]: > 500 nM; Kd (TYK2 JH2; [6]): ≤ 100 nM
CNc1ncc(-c2cc(Br)no2)c2cc(NC(=O)C3CC3)ncc12 [Example 126, N-(5-(3-bromoisoxazol-5-yl)-8-(methylamino)-2,7-naphthyridin-3-yl)cyclopropanecarboxamide]				IC50 [1, 5]: > 500 nM; Kd (TYK2 JH2; [6]): ≤ 100 nM
CNc1ncc(C#Cc2ccc(S(=O)(=O)C3CC3)cc2)c2cc(NC(=O)C3CC3)ncc12 [Example 637, N-(5-((4-(cyclopropylsulfonyl)phenyl)ethynyl)-8-(methylamino)-2,7-naphthyridin-3-yl)cyclopropanecarboxamide]	≤ 500	≤ 100		
COc1ccc2oc(-c3cnc(NCC(F)F)c4cnc(NC(=O)C5CC5)cc34)nc2c1 [Example 370, N-(8-((2,2-difluoroethyl)amino)-5-(5-methoxybenzo[d]oxazol-2-yl)-2,7-naphthyridin-3-yl)cyclopropanecarboxamide]	≤ 500		≤ 100	
CNc1ncc(C#Cc2cc3c(cc2F)OCCO3)c2cc(NC(=O)C3CC3)ncc12 [Example 973, N-[5-[2-(6-fluoro-2,3-dihydro-1,4-benzodioxin-7-yl)ethynyl]-8-(methylamino)-2,7-naphthyridin-3-yl]cyclopropanecarboxamide]	≤ 500	≤ 100		
CNc1ncc(-c2nc3ccc(OC)cn3n2)c2cc(Nc3ccccn3)ncc12 [Example 523, 4-(6-methoxy-[1,2,4]triazolo[1,5-a]pyridin-2-yl)-N^1-methyl-N^6-(pyridin-2-yl)-2,7-naphthyridine-1,6-diamine]	≤ 500		≤ 100	
CNc1ncc(C#Cc2ccc3nc4n(c3c2)CCOC4)c2cc(NC(=O)C3(F)CC3)ncc12 [Example 758, N-(5-((3,4-dihydro-1H-benzo[4,5]imidazo[2,1-c][1,4]oxazin-7-yl)ethynyl)-8-(methylamino)-2,7-naphthyridin-3-yl)-1-fluorocyclopropane-1-carboxamide]	≤ 500	≤ 100		
CNc1ncc(C#Cc2nccc3cc(C)sc23)c2cc(NC(=O)C3CC3)ncc12 [Example 1012, N-(8-(methylamino)-5-((2-methylthieno[2,3-c]pyridin-7-yl)ethynyl)-2,7-naphthyridin-3-yl)cyclopropanecarboxamide]		≤ 100		IC50 ([1]; IFNa-stimulated pSTAT5 (Tyr694/699), read-out: Cellular_THP1_IFNa-pSTATS_TYK2): ≤ 500 nM
CNc1ncc(C#Cc2ccc(OCC3(C)COC3)cc2)c2cc(NC(=O)C3CC3)ncc12 [Example 701, N-(8-(methylamino)-5-((4-((3-methyloxetan-3-yl)methoxy)phenyl)ethynyl)-2,7-naphthyridin-3-yl)cyclopropanecarboxamide]	≤ 500	≤ 100		
CNc1ncc(-c2nc3cc(OC4CC4)ccc3o2)c2cc(NC(=O)C3CC3)ncc12 [Example 223, N-(5-(5-cyclopropoxybenzo[d]oxazol-2-yl)-8-(methylamino)-2,7-naphthyridin-3-yl)cyclopropanecarboxamide]	≤ 500		≤ 100	
CNc1ncc(/C=C/c2ccc3c(c2)OC[C@H](COC)O3)c2cc(NC(=O)C3CC3)ncc12 (single isomer, unassigned) [Example 790]	≤ 500	≤ 100		
CNc1ncc(-c2nc3cc(Cl)ccc3o2)c2cc(NC(=O)C3CC3)ncc12 [Example 212, N-(5-(5-chlorobenzo[d]oxazol-2-yl)-8-(methylamino)-2,7-naphthyridin-3-yl)cyclopropanecarboxamide]	≤ 500		≤ 100	
CNc1ncc(-c2nc3cc(N4CCOC(C(F)F)C4)ccc3o2)c2cc(NC(=O)C3CC3)ncc12 (stereo not shown) [Example 329, N-(5-(5-(2-(difluoromethyl)morpholino)benzo[d]oxazol-2-yl)-8-(methylamino)-2,7-naphthyridin-3-yl)cyclopropanecarboxamide]	≤ 500		≤ 100	

Now from value to compound, other results behind:

IC50 [1, 2] [nM]	Kd (TYK2 JH2; [3]) [nM]	Kd (TYK2 JH2; [4]) [nM]	Compound	further results
> 500	≤ 100		CNc1ncc(-c2nc3ccccc3o2)c2c1cnc1[nH]ccc12 [Example 825, 9-(benzo[d]oxazol-2-yl)-N-methyl-3H-pyrrolo[2,3-c][2,7]naphthyridin-6-amine]	
≤ 500		≤ 100	CNc1ncc(-c2nc3cc(C(C)=O)ccc3o2)c2cc(NC(=O)C3CC3)ncc12 [Example 216, N-(5-(5-acetylbenzo[d]oxazol-2-yl)-8-(methylamino)-2,7-naphthyridin-3-yl)cyclopropanecarboxamide]	
≤ 500	≤ 100		CNc1ncc(-c2nc3cc(-c4ccn(C)n4)ccc3o2)c2cc(NC(=O)C3CC3)ncc12 [Example 939, N-(5-(5-(1-methyl-1H-pyrazol-3-yl)benzo[d]oxazol-2-yl)-8-(methylamino)-2,7-naphthyridin-3-yl)cyclopropanecarboxamide]	
≤ 500	≤ 100		CNc1ncc(-c2nc3ccc(N4CCOCC4)cc3o2)c2cc(NC(=O)C3CC3)nnc12 [Example 913, N-(8-(methylamino)-5-(6-morpholinobenzo[d]oxazol-2-yl)pyrido[3,4-c]pyridazin-3-yl)cyclopropanecarboxamide]	
≤ 500	≤ 100		CNc1ncc(C#Cc2ccc(N3CCOCC3)cc2)c2cc(NC(=O)C3CC3)ncc12 [Example 624, N-(8-(methylamino)-5-((4-morpholinophenyl)ethynyl)-2,7-naphthyridin-3-yl)cyclopropanecarboxamide]	
≤ 500	≤ 100		CNc1ncc(-c2nc(-c3ncn(C)n3)co2)c2cc(NC(=O)C3CC3)ncc12 [Example 830, N-(5-(4-(1-methyl-1H-1,2,4-triazol-3-yl)oxazol-2-yl)-8-(methylamino)-2,7-naphthyridin-3-yl)cyclopropanecarboxamide]	
≤ 500	≤ 100		CNc1ncc(C#Cc2ccc(-n3cccn3)cn2)c2cc(NC(=O)C3CC3)ncc12 [Example 954, N-(5-((5-(1H-pyrazol-1-yl)pyridin-2-yl)ethynyl)-8-(methylamino)-2,7-naphthyridin-3-yl)cyclopropanecarboxamide]	
≤ 500		≤ 100	CNc1ncc(-c2nc3ccc(N4CCOCC4)cn3n2)c2cc(NC(=O)C3(OC)CC3)ncc12 [Example 529, 1-methoxy-N-(8-(methylamino)-5-(6-morpholino-[1,2,4]triazolo[1,5-a]pyridin-2-yl)-2,7-naphthyridin-3-yl)cyclopropane-1-carboxamide]	
